Consider seven molecules from PMC12203428, “Discovery of Clonixeril as a Sub-Femtomolar Modulator of the Human STING Receptor” (ACS Central Science, 2025).

Data set [1] concerns IFN-β expression in HEK293 cells. The data set can be described thus: HEK293 real-time qPCR for IFN-β. As to conditions: 4 μM 2′,3′-cGAMP 3 h, positive control. In general terms: Real-time PCR tracks product formation cycle by cycle.
Protocol: IFN-β expression levels were measured using real-time qPCR.
HEK293 cells were seeded at 700,000 cells per 60 mm plate confluency and treated 36 h later.
Data set [2] addresses T1, hSTING CTD (STING R232 variant) (Homo sapiens, UniProt Q86WV6, H232R).
T1 construct: 6X-His tagged hSTING^WT, R232 variant, CTD protein was purchased; purchased Invivogen (USA) or Cayman Chemicals (USA)
The data set can be described thus: Microscale thermophoresis. In kind it is binding. As to conditions: for Activity in MST assay: competition with 2′,3′-cGAMP. On the procedure: Small molecule affinities at subpicomolar concentrations are typically difficult to determine by MST due to the inability of the detector to measure differential movement of proteins when largely disproportionate ratios of protein to ligand are involved. […] Generally, an IC50 correlates well with a K D when a small molecule competes for binding with a natural substrate for a target protein.
The resulting mixture was centrifuged at 12,000 x RPM 10 min prior to use. […] The samples were run again at 30- and 45 min. Detection of the protein was performed using the blue detection channel with excitation power set to 100% and MST set to high allowing 3 s prior to MST on to check for initial fluorescence differences, 35 s for thermophoresis, and 3 s for regeneration after MST off. Analysis was performed using M.O. Affinity Analysis Software with difference between initial fluorescence measured in the first 5 s as compared with thermophoresis at 30 s at 16 different analyte concentrations ranging from 100 μM to 100 zM and exported into Graphpad Prism v.8 using a Log inhibitor versus response for parameter fit.

The next data set concerns the target T2, His-hSTING CTD (Homo sapiens, UniProt Q86WV6, H232R).
T2 construct: purchased Invivogen (USA) or Cayman Chemicals (USA)
Put plainly: Surface plasmon resonance. In kind it is binding. As to conditions: read-out: KD (SPR). On the procedure:
SPR was employed for binding measurements using the His-tagged hSTING^WT CDN domain. A GE Healthcare Biacore T200 was equipped with a Ni-NTA chip. […] The sensorgrams were analyzed using Biacore T200 Software 3.0 and steady state was measured at 4 s before injection stop, exported into Graphpad, and fit versus concentration using a one site specific binding model to calculate the apparent equilibrium dissociation constant (K D). Where appropriate, kinetics were measured using a 1:1 Langmuir binding model with R max set to local to obtain the association rate (K on), dissociation (K off)

A further data set has as its target STING CTD. Also noted: method as in not given. To be noted: ref not given; read-out: KD previously reported (ITC); cited from earlier work.
A further data set deals with STING. Also on record: method as in Ergun et al. To be noted: ref Ergun et al., cited from earlier work.
Data set [3] deals with T3, SUMO-hSTING CTD (Homo sapiens, UniProt Q86WV6, H232R). The data set can be described thus: Isothermal titration calorimetry. It counts as binding. Also on record: human STING (amino acid 155–343) was synthesized and subcloned into pET28a vector; made in house; host or cells: E. coli BL21(DE3). The source says:
In order to further explore the interaction between CXL and hSTING CTD, we employed Isothermal calorimetry (ITC) to measure the heat evolved accompanying CXL’s effect on SUMO-hSTING^WT CTD. […] In Figure A, we show the ITC data we obtained. […]. […] In Figure B, we also find that the binding isotherm is far from steady state or equilibrium, and thus, we could not obtain reliable thermodynamic parameters. Nonetheless, a significant amount of heat was released in the process of CXL interacting with the hSTING CTD. On the other hand, we were most interested in ITC measurements taken at femtomolar concentrations, given the biophysical experiments and in cellulo studies already described. Initial experiments treating the hSTING CTD with femtomolar concentrations of CXL were unsuccessful, likely due to the insensitivity of the instrument. […]. MicroCal ITC200 instrument (Malvern Pananalytical) was used to assess STING and CXL interactions. Both recombinantly purified STING domains (residues 155–343) containing a SUMO tag and CXL were buffer-exchanged and made in the same buffer composition, respectively, to avoid buffer mismatch. The same buffer cocktail was used in all ITC experiments, containing 25 mM HEPES (pH, 7.4), 150 mM NaCl, 5% glycerol, 0.5 mM TCEP, and 5% DMSO. STING protein from −80 °C aliquots was spun down at 12,000 RPM for 5–10 min before each run to remove any aggregates, diluted into the ITC buffer above (either as 40 μM STING alone or as 40 μM STING plus 20 μM 2,3-cGAMP), and loaded into the cell. CXL at various concentrations for different experiments was loaded into the syringe (Hamilton). For the control and reference, an ITC buffer devoid of CXL was used. ITC experiments were conducted at 25 °C using an initial 0.4 μL injection and 19 subsequent injections of 2 μL each at 150 s intervals. Heat of dilution (differential power) of the 19 injections resulting from the binding event was fitted into the nonlinear least-squares equation incorporated in the MicroCal ITC200 analysis software. The K D and other thermodynamic parameters were derived from curve fitting using MicroCal software.
On the technique in general: In ITC the heat of successive injections is recorded.

Data set [4] concerns p-IRF3 in HEK293S cells (hSTING pathway). The data set can be described thus: Phospho-IRF3 Western blot in HEK293S cells with diABZI3. It counts as cell-based, human. To be noted: 100 fM compound, 100 nM diABZI3, preliminary.
Protocol: HEK293T cells transfected with hSTINGWT cells were seeded in a 6-well plate in DMEM
(supplemented with 10% heat-inactivated fetal bovine serum, 1X Corning Penicillin-Streptomycin
solution and 0.01mg/mL Blasticidin). Upon reaching ~80% confluence, cells were pretreated with
varying concentrations of CXL in FBS-free DMEM for 2 hours. This was followed by treatment
with diABZI3 (100nM) for 1 hour. The cells were scraped, harvested by centrifugation at 1000 x g
for 3 mins. The resulting pellet is resuspended in 1X PBS with 1X Halt protease & phosphatase
inhibitor and 1% NP-40. Cell lysis was performed by probe sonication. The cell lysate is further
denatured in 1X SDS loading buffer by boiling for 10 mins and separated by SDS-PAGE (4-20%
gel). The separated proteins were electrically transferred to a PVDF membranes separately,
which was probed with primary (α-pIRF3, α-IRF3 & α-STING) and secondary (goat anti-rabbit IR
dye 680 & goat anti-mouse IR dye 800CW) antibodies. The blots were visualized using a LICOR
Image Analyzer. All the experiments were performed at least in duplicate.
The target of data set [5] is T3, SUMO-hSTING CTD. The data set can be described thus: Dynamic light scattering of STING oligomerization. As to conditions: 50 nM STING CTD; S-isomer up to 500 fM; reviewer's reading.
Protocol: (B) DLS was performed for 2 h (n = 960 measurements) with 50 nM STING exposed to analytes. […] Blue blocks indicate size counts as a percentage to overall mass over selected mass ranges. […] Measurements were made using a Malvern Zetasizer Nano ZS set to 40 measurements at 1 s/measurement and 24 runs.
Data set [6] deals with the molecule itself. Put plainly: dynamic light scattering; 50 nM STING with 50 nM 2′,3′-cGAMP and a titrated range of analyte (CXL, CXN, H-151), HBS-P pH 7.4, 2 h.
Setting [7] is: 500 μM c-diGMP to 40 μM hSTING CTD.

T1 sequence (Q86WV6 153-340 H232R): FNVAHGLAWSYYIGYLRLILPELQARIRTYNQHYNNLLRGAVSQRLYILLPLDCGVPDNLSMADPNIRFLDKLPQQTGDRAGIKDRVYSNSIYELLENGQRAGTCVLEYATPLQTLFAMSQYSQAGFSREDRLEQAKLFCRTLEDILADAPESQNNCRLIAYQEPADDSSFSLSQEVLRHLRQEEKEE
T3 sequence (Q86WV6 155-343 H232R): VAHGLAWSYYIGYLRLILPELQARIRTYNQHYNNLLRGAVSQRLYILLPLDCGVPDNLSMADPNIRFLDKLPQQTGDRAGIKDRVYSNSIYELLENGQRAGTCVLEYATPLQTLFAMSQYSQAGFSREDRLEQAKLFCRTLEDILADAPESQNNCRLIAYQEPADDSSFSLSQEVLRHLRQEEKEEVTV
T2 sequence (Q86WV6 153-340 H232R): as the sequence (Q86WV6 153-340 H232R) above

Turning to `Nc1nc2c(ncn2C2OC3COP(=O)(O)OC4C(COP(=O)(O)OC2C3O)OC(n2cnc3c(N)ncnc32)C4O)c(=O)[nH]1` (stereo not drawn) [2′,3′-cGAMP, cyclic guanosine-(2′→5′)-monophosphate-adenosine-(3′→5′)-monophosphate, reference compound], the “Induction of IFN-β production” value in [1] is given as 7.4 fold.

In the case of `Cc1c(Cl)cccc1Nc1ncccc1C(=O)OCCCCOC(=O)c1cccnc1Nc1cccc(Cl)c1C` [Compound 14], in [2], the “Activity in MST assay” value is “quite active”.

The term Kd denotes the free concentration of one partner at which half of the binding sites on the other are occupied at equilibrium, for simple one-to-one binding. A word on the IC50: it is the concentration that inhibits the measured activity by half. For `Nc1nc2c(ncn2C2OC3COP(=O)(O)OC4C(COP(=O)(O)OC3C2O)OC(n2cnc3c(=O)[nH]c(N)nc32)C4O)c(=O)[nH]1` (stereo not drawn) [c-diGMP, cyclic di-GMP, reference compound], the Kd on His-hSTING CTD was 4780 ± 1650 nM; at STING CTD, 3700 nM; on SUMO-hSTING CTD [3] (read-out: KD (ITC)) it was 2170 nM. In addition, in the data set with STING, the “Hill coefficient for STING activation” value is listed as 2.6. In addition, in the data set with STING (read-out: IC50 for inhibition of the action of 2′,3′-cGAMP), the IC50 was approximately 800 nM. Further, the “ΔH0 (ITC)” value at SUMO-hSTING CTD [3] (setting [7]) was -24.6 kcal/mol. Further, on SUMO-hSTING CTD [3] (setting [7]), the “ΔS0 (ITC)” value is reported as −56.5 cal/mol/deg.

As for `Cc1cccc(Nc2ccccc2C(=O)OCC(O)CO)c1C` (stereo not drawn) [MFE, mefenamic acid glycerol ester], in [2] (+50 nM 23cGAMP), the “KD (Table S1, Thermophoresis)” value is reported as “No shift”. In addition, the “Activity in MST assay” value in [2] was “no indication of activity at any concentration below 1 μM”.

In the case of `Cc1c(Cl)cccc1Nc1ncccc1C(=O)OC[C@H](O)CO` (single isomer, unassigned) [R-enantiomer, R-clonixeril], in data set [2], the “Activity in MST assay” value is listed as “subfemtomolar activity”. In data set [4], the “Effect on p-IRF3” value is reported as “agonistic”. Moreover, the “Effect of enantiomers on protein aggregate size” value on SUMO-hSTING CTD [5] is reported as “slightly less potent”.

`Cc1c(Cl)cccc1Nc1ncccc1C(=O)OC[C@@H](O)CO` (single isomer, unassigned) [S-enantiomer, S-clonixeril]: the “Activity in MST assay” value in [2] is listed as “an effect at higher concentrations”. Moreover, the “Effect on p-IRF3” value in data set [4] was “no effect”. Further, the “Effect of enantiomers on protein aggregate size” value at SUMO-hSTING CTD [5] was “no effect”.

B1: His-SUMO-TEV-hSTING CTD (domain or fragment, human, UniProt Q86WV6 155-343, looked up)
chain: VAHGLAWSYYIGYLRLILPELQARIRTYNQHYNNLLRGAVSQRLYILLPLDCGVPDNLSMADPNIRFLDKLPQQTGDHAGIKDRVYSNSIYELLENGQRAGTCVLEYATPLQTLFAMSQYSQAGFSREDRLEQAKLFCRTLEDILADAPESQNNCRLIAYQEPADDSSFSLSQEVLRHLRQEEKEEVTV
notes: human STING (stimulator of interferon genes), C-terminal domain, amino acids 155-343, wild type (R232) allele; a TEV site lies between SUMO and STING by the construct's name; Synthetic gene in pET28a; also called SUMO-hSTING CTD; SUMO-hSTING^WT CTD; source: E. coli BL21(DE3), purified (Ni-NTA); not shown: His6, N-terminal, kept; SUMO, N-terminal, kept
For B1, the binding result in data set [6] is listed as “binds”.
